From PMC9489722, “Identification and development of a subtype-selective allosteric AKT inhibitor suitable for clinical development” (Scientific Reports, 2022)
Read-outs that look alike come from different tables or passages of the source.

Tests used:
[1] = In vitro microsomal stability, rat; assay type: in vitro ADME; conditions: pH 7.4; rat liver microsomes; read-out: rat LM CLint
Experimental: (§1) Compounds (final concentration = 1 µM; final DMSO concentration = 0.1%) were incubated in 0.1 M phosphate buffer at pH 7.4 with liver microsomes (human, mouse, rat or dog; 0.5 mg of protein/mL) at 37 °C. Reactions were started by addition of NADPH in 0.1 M phosphate buffer pH 7.4 (final concentration 1 mM). Reactions were quenched by addition of ice-cold methanol and frozen. The supernatants were analysed by LC/MS/MS on a Waters Acquity I-Class coupled to a Waters Xevo TQD mass spectrometer. A Waters BEH C18 2.1 × 50 mm 1.7 µm column was used and mobile phases consisted of water and methanol containing 0.1% formic acid as modifier. Analysis was by multiple reaction monitoring and conditions were optimised for each test compound.

[2] = Pharmacokinetic study in Sprague–Dawley rats; assay type: in vivo, rat; conditions: male SD rats
Experimental: Eight rats were purchased and 6 used on the PK study (3 per administration route). The remaining rats were purchased in case of mis-dosing events and were used to obtain blank biological matrix. Compounds were administered as single i.v. doses at 1 mg free base/kg or single oral doses at 5 mg free base/kg, with blood samples obtained from three rats per dose route, at 9 time-points out to 24 h post-dose. Both the intravenous and oral doses were prepared at a concentration of 1 mg free base/mL in a mixture of 5% DMSO/95% saline. Blood samples were centrifuged to give plasma. Plasma proteins were precipitated, and compounds extracted by addition of six volumes of acetonitrile containing warfarin as internal standard. Samples were centrifuged at 4000 rpm for 30 min and the supernatants were analysed on a Waters Xevo TQ mass spectrometer. Multiple Reaction Monitoring (MRM) methods were developed for each test compound using Waters IntelliStart software.
Quantification of test compounds was by extrapolation from calibration lines prepared in control rat plasma and analysed concurrently with experimental samples.
Non-compartmental analysis was performed using the software package PK Solutions 2.0 from Summit Research Services to produce the PK parameters. AUC values were calculated by the trapezoidal method.
Oral bioavailability was estimated by comparison of the drug concentration/time AUCs for individual animals after oral dosing with the mean AUC from i.v. doses.

CYP 2C9 = CYP 2C9 (Homo sapiens, UniProt P11712); assay: CYP2C9 inhibition; assay type: in vitro ADME
Kinetic solubility assay = assay type: physicochemical; conditions: PBS pH 7.4, read-out: Kinetic solubility pH7.4
Experimental: Compound solubility was tested in Dulbecco A PBS buffer at pH7.4 in Millipore MultiScreen Solubility Filter plates. Analysis was carried out on a Bioteck Synergy 4 plate reader (240–400 nm) and solubility quantified against a 5-point calibration curve.

LogD7.4 assay = assay type: physicochemical; conditions: octanol/PBS buffer; octanol/PBS pH 7.4
Experimental: Compounds (100 µM) were shaken at 300 rpm at room temperature for 4 h in a biphasic system of octanol and PBS buffer pH 7.4 in a 96-well plate in triplicate. The relative drug concentration in each phase was then determined by the peak area measurement from LC-UV analysis on an Agilent 1260 chromatography instrument (UV detection at 254 nm and 220 nm). LogD is calculated as follows: LogD = Log[peak area of compound in octanol x injection volume of buffer phase/peak area of compound in buffer x injection volume of octanol phase].

[3] = system: pAKT (Ser473) in MCF-7 cells; assay: phospho-AKT (S473) ELISA in MCF-7 cells; assay type: cell-based; conditions: Homo sapiens, MCF7, 24h treatment, read-out: EC50 inhibition of phosphorylation of AKT
Experimental: (§2) Cells were then washed with PBS and lysed. The subsequent supernatant was assayed using a GSK3β (pS9) (Invitrogen, Life Technologies) ELISA. Phospho-AKT levels were detected using the phospho-AKT (S473) immunoassay (R&D Systems) as per manufacturer’s protocol. Percentage inhibition of phosphorylation status was calculated by comparing phospho-AKT levels to total AKT levels with each treatment and IC50 values derived using non-linear regression on GraphPad Prism.

[4] = system: pGSK3β in PC3 prostate cancer cells; assay: pGSK3β ELISA in PC3 cells; assay type: cell-based; conditions: for IC50: Homo sapiens, PC-3, PC3 cells, 24 h
Experimental: as §2

[5] = In vitro proliferation assay (CellTiter-Glo), normal cell lines; assay type: cell-based; conditions: human, normal cell lines (4 of the 6 tested; lines not named); 4 of the 6 normal cell lines tested; read-out: cytotoxicity EC50, normal cell lines
Experimental: MCF-7, T47D, NCI-H460, HCT116, LNCaP, A431, PC3, PANC-1, A549, HT29M, SKOV-3, Du145, HMEC-1, Hs888Lu, Hela, MDA-MB-231 and SW480 cells were obtained from American Type Culture Collection (ATCC). A2780, PNT2, U251MG, HFFF2 and Fr2 cells were obtained from Public Health England European Collection of Authenticated Cell Cultures (Phe ECACC). InMyoFib and NHLF cells were acquired from Lonza. Cells were then incubated with increasing concentration of inhibitor (1 nM to 100 µM) for 72 h at 37 °C. Cell viability was determined using the CellTiter-Glo Luminescent Cell Viability Assay (Promega). IC50 values were derived as previously stated.

[6] = In vitro microsomal stability, human; assay type: in vitro ADME; conditions: pH 7.4; human liver microsomes; read-out: human LM CLint
Experimental: as §1

[7] = system: pAKT^S473 in A549 tumours; assay: PK/PD study in A549 lung cancer xenograft model; assay type: in vivo, mouse; conditions: single oral dose 100 mg/kg, 24-h time period, A549 xenograft
Experimental: In order to understand the relationship between ALM301 plasma exposure and in vivo AKT target engagement over time, a PK/PD study was carried out in a A549 lung cancer xenograft model. […] ALM301 plasma concentrations and levels of pAKT^S473 in tumours were measured using western blotting and immunohistochemistry (Fig. 4A, B and Supplementary Fig. S4A–C). […] Tumour sections were collected following one dose of either vehicle or 30 mg/kg of ALM301 at noted time intervals (1 h, 2 h, 4 h, 8 h, 24 h). Tissue sections were subsequently stained with pAKT antibody (brown) staining and scored for pAKT staining using a scale of 1–4 (low to high) (Fig. 4B).
For pharmacokinetic/pharmacodynamic (PK/PD) studies in A549 lung cancer xenografts, 150 male BALB/c nude mice aged 6–8 weeks and weighing approximately 18–22 g were inoculated with 1 × 10^7 A549 tumour cells (ATCC) in 0.1 mL of PBS with Matrigel (1:1) subcutaneously into the right flank. Once the mean tumour size reached 150–250 mm^3, the mice were randomised into treatment groups (18 mice per group) using a randomised block design (first, experimental animals are divided into homogeneous blocks according to their initial tumour volume; secondly, within each block, randomisation of animals to treatment groups was conducted so that each animal had the same probability of being assigned to a given treatment, thereby reducing systematic bias). Group sizes were devised based on previous pilot studies using a minimal numbers approach of n = 3 tumours per time-point (6 time-points per dose level). […] Tumour size was measured twice weekly in two dimensions using a caliper, and the volume expressed in mm^3 using the formula: V = 0.5 (a × b^2), where a and b are the long and short diameters of the tumour, respectively.

AKT2 = target: T1, AKT2 (Homo sapiens, UniProt P31751); assay: AKT2 biochemical kinase assay (FP iMAP); conditions: read-out: AKT IC50, AKT2
T1 construct: purchased Signal Chem
Experimental: (§3) Biochemical analysis was performed using kinases obtained from Millipore (AKT1, ∆AKT1, ∆AKT2, ∆AKT3) and Signal Chem (AKT2 and AKT3). […] (Molecular Devices) against the three isoforms of AKT and their PH domain null mutants. Compounds were dissolved in DMSO prior to screening at 14 point titration series in the range (50 µM–50 pM). Fluorescence polarisation was measured using a Biotek Synergy 4 Hybrid microplate reader. Percentage inhibition of kinase activity was calculated and IC50 values derived using non-linear regression on GraphPad Prism. Competition of ALM301 with ATP was determined using AKT1 under increasing ATP concentrations up to 1000 µM.

AKT3 = target: T2, AKT3 (Homo sapiens, UniProt Q9Y243); assay: AKT3 biochemical kinase assay (FP iMAP); conditions: read-out: AKT IC50, AKT3
T2 construct: purchased Signal Chem
Experimental: as §3

AKT1 = target: T3, AKT1 (Homo sapiens, UniProt P31749); assay: AKT1 biochemical kinase assay (FP iMAP); conditions: for IC50: read-out: AKT IC50, AKT1
T3 construct: purchased Millipore
Experimental: as §3

MCF-7 cells = conditions: ALM301 in combination with Tamoxifen
Experimental: A synergy screen, using ALM301 and combination partners in a matrix design, was conducted to identify compounds which are synergistic in combination with ALM301. Synergy was calculated using the median concentration effect method using Calcusyn software as previously described.

MCF-7 xenografts = assay: Efficacy study in MCF-7 breast cancer xenograft model; assay type: in vivo; conditions: MCF-7 xenograft, tamoxifen alone 5 mg/kg q.d. p.o.
Experimental: For efficacy in MCF-7 xenografts, 150 SCID female mice aged 6–8 weeks and weighing approximately 18–22 g were implanted with 1 × 10^7 MCF-7 tumour cells (ATCC) subcutaneously in the right flank. […] Once mean tumour size reached approximately 150 mm^3, mice were randomised to either control or treatment groups (n = 10/group) using a randomised block approach. Groups sizes were devised based on past experience of the provider. […] Tumour size was measured twice weekly in two dimensions using a caliper, and the volume expressed in mm^3 using the formula: V = 0.5 (a x b^2), where a and b are the long and short diameters of the tumour, respectively.

[8] = PBS buffer, pH 7.4, aqueous buffer, kinetic from dmso stock

T3 sequence (P31749 whole entry): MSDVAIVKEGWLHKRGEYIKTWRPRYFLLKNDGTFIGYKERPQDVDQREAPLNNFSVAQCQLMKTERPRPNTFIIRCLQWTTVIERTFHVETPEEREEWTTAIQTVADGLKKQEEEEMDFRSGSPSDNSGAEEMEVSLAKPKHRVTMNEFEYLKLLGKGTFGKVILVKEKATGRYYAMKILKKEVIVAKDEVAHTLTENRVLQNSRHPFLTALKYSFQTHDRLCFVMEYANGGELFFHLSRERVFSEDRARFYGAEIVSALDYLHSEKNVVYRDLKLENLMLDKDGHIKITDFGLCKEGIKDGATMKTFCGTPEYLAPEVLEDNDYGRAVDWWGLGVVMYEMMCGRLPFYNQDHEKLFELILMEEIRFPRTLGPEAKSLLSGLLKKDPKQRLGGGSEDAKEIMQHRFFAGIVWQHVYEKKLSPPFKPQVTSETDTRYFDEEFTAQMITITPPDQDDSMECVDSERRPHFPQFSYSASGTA
T2 sequence (Q9Y243 whole entry): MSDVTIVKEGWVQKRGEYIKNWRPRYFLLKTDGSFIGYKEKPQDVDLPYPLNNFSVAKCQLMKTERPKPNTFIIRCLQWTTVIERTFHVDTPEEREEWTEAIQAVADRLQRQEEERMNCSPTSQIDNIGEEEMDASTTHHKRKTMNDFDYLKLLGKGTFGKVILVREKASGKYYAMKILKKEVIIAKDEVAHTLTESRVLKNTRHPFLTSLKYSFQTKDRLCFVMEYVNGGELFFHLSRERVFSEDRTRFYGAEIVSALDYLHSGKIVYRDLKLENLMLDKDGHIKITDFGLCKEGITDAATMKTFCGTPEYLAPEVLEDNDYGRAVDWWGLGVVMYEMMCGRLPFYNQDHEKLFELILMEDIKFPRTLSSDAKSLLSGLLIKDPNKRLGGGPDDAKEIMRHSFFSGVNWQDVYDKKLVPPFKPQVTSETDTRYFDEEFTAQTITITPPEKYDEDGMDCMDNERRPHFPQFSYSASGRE
T1 sequence (P31751 whole entry): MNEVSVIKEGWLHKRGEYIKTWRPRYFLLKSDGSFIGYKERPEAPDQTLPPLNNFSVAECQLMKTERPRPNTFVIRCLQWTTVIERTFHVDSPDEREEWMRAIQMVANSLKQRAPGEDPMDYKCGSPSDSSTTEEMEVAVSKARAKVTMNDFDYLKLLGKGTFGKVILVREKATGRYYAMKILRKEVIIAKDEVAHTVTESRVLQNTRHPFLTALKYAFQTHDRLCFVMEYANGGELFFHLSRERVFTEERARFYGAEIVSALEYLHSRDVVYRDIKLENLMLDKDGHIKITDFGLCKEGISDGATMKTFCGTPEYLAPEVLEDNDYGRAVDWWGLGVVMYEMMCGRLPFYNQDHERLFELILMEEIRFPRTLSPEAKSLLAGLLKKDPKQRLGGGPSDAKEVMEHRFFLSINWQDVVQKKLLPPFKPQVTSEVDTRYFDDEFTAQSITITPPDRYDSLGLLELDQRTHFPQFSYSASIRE
Sequence of CYP 2C9 (P11712 whole entry): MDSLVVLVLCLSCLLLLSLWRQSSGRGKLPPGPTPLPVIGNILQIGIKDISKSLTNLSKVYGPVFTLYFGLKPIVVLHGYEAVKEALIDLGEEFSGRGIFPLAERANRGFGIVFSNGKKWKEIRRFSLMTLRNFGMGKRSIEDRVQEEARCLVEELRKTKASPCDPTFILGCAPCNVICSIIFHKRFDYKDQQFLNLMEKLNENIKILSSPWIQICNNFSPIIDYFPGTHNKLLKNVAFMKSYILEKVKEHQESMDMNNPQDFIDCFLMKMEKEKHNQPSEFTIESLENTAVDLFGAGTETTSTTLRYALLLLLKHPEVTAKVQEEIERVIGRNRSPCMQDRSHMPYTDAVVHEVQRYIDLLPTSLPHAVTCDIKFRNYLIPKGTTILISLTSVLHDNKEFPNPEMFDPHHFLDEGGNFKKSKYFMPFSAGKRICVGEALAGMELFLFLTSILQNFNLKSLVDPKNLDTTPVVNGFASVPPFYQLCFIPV

NC1(c2ccc(-c3nc4ccn5c(=O)[nH]nc5c4cc3-c3ccccc3)cc2)CCC1 [MK-2206, reference compound]
microsomal CLint at 1 µM [1]: 13 µL/min/mg | clearance ([2]; Sprague-Dawley, rat, plasma, iv, 1 mg/kg i.v., read-out: Rat PK CL): 24 mL/min/kg | Vd ([2]; Sprague-Dawley, rat, plasma, iv, 1 mg/kg i.v., read-out: Rat PK Vd): 12 L/kg | Rat PK F ([2]; 1 mg/kg i.v. and 5 mg/kg p.o., AUC 0-∞): 12% | IC50 (CYP 2C9): 19000 nM | solubility kinetic (Kinetic solubility assay; [8]): 190 µM | logD at 4 h (LogD7.4 assay): 2.4 | EC50 [3]: 2550 nM | IC50 [4]: 120 nM | EC50 at 72 h [5]: < 20000 nM | microsomal CLint at 1 µM [6]: 20 µL/min/mg | pAKT^S473 in tumours [7]: incomplete inhibition

NC1(c2ccc(-c3nc4c(cc3-c3ccccc3)NC(=O)CO4)cc2)CCC1 [compound 1]
solubility kinetic (Kinetic solubility assay; [8]): 206 µM | IC50 (AKT2): 3300 nM | IC50 [4]: 3000 nM | IC50 (AKT3): 6100 nM | AKT1 ligand efficiency (LE) (AKT1): 0.28 | IC50 (AKT1): 2500 nM

CN1C(=O)COc2nc(-c3ccc(C4(N)CCC4)cc3)c(-c3ccccc3)cc21 [compound 2]
solubility kinetic (Kinetic solubility assay; [8]): > 190 µM | solubility kinetic (Kinetic solubility assay): 191 µM | IC50 (AKT2): 400 nM | IC50 [4]: 100 nM | potency improvement in pGSK3β decrease compared with des-N-methyl analogue 1 ([4]; PC3 prostate cancer cells): ca. 30 fold | IC50 (AKT3): 5600 nM | AKT1 ligand efficiency (LE) (AKT1): 0.34 | IC50 (AKT1): 100 nM

CC/C(=C(\c1ccccc1)c1ccc(OCCN(C)C)cc1)c1ccccc1 [tamoxifen]
combination effect at ED50 (MCF-7 cells): Synergy | combination effect at ED75 (MCF-7 cells): Synergy | combination effect at ED90 (MCF-7 cells): Strong Synergy | tumour regression (MCF-7 xenografts): 24%
